From PubChem BioAssay (NCI)
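Tested at 5 concentrations; 48 h exposure; 96-well plates; endpoints linearly interpolated, else capped at highest concentration. The concentration for 50% growth inhibition is given as GI50. Definition used: TGI = concentration required for complete inhibition of growth.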

Columns and labels:
Test in all cases: DTP human tumour cell line panel, 48 h
HOP-92 NSCLC = system: HOP-92 NSCLC
SR leukemia = system: SR leukemia
SNB-75 CNS = system: SNB-75 CNS
DU-145 prostate = system: DU-145 prostate
SF-268 CNS = system: SF-268 CNS
PC-3 prostate = system: PC-3 prostate
K-562 leukemia = system: K-562 leukemia
NCI-H23 lung = system: NCI-H23 lung
A549 NSCLC = system: A549 NSCLC
CCRF-CEM leukemia = system: CCRF-CEM leukemia
SK-OV-3 ovarian = system: SK-OV-3 ovarian
HS 578T breast = system: HS 578T breast
SW-620 colon = system: SW-620 colon
OVCAR-8 ovarian = system: OVCAR-8 ovarian
MDA-MB-231 breast = system: MDA-MB-231 breast
HT29 colon = system: HT29 colon
LOX IMVI melanoma = system: LOX IMVI melanoma
KM12 colon = system: KM12 colon
COLO 205 colon = system: COLO 205 colon
NCI-H460 lung = system: NCI-H460 lung
MALME-3M melanoma = system: MALME-3M melanoma
NCI-H522 lung = system: NCI-H522 lung
CAKI-1 renal = system: CAKI-1 renal
SK-MEL-5 melanoma = system: SK-MEL-5 melanoma
TK-10 renal = system: TK-10 renal
NCI-H226 lung = system: NCI-H226 lung
U251 CNS = system: U251 CNS
UO-31 renal = system: UO-31 renal
HCC-2998 colon = system: HCC-2998 colon
MCF7 breast = system: MCF7 breast
OVCAR-5 ovarian = system: OVCAR-5 ovarian
UACC-62 melanoma = system: UACC-62 melanoma
A498 renal = system: A498 renal
786-0 renal = system: 786-0 renal
SNB-19 CNS = system: SNB-19 CNS
RXF 393 renal = system: RXF 393 renal
SF-539 CNS = system: SF-539 CNS
OVCAR-4 ovarian = system: OVCAR-4 ovarian
HCT-116 colon = system: HCT-116 colon
NCI/ADR-RES ovarian = system: NCI/ADR-RES ovarian
T-47D breast = system: T-47D breast
M14 melanoma = system: M14 melanoma
UACC-257 melanoma = system: UACC-257 melanoma
HOP-62 NSCLC = system: HOP-62 NSCLC
SK-MEL-28 melanoma = system: SK-MEL-28 melanoma
SN12C renal = system: SN12C renal
IGROV1 ovarian = system: IGROV1 ovarian
HCT-15 colon = system: HCT-15 colon
SK-MEL-2 melanoma = system: SK-MEL-2 melanoma
ACHN renal = system: ACHN renal
RPMI-8226 leukemia = system: RPMI-8226 leukemia
MOLT-4 leukemia = system: MOLT-4 leukemia
MDA-MB-435 = system: MDA-MB-435
EKVX NSCLC = system: EKVX NSCLC
BT-549 breast = system: BT-549 breast
HL-60(TB) leukemia = system: HL-60(TB) leukemia
SF-295 CNS = system: SF-295 CNS

CCCCCCNC(=O)Oc1ccc(/C(=C(\C)c2ccc(Cl)cc2)c2ccc(OCCN(C)C)cc2)cc1
GI50 (HOP-92 NSCLC): 1020 nM
TGI (HOP-92 NSCLC): 2220 nM
GI50 (SR leukemia): 1680 nM
TGI (SR leukemia): 4100 nM
GI50 (SNB-75 CNS): 1690 nM
TGI (SNB-75 CNS): 7120 nM
GI50 (DU-145 prostate): 2020 nM
TGI (DU-145 prostate): 3920 nM
GI50 (SF-268 CNS): 2390 nM
TGI (SF-268 CNS): 7630 nM
GI50 (PC-3 prostate): 1440 nM
TGI (PC-3 prostate): 2840 nM
GI50 (K-562 leukemia): 1660 nM
TGI (K-562 leukemia): 7210 nM
GI50 (NCI-H23 lung): 2240 nM
TGI (NCI-H23 lung): 5710 nM
GI50 (A549 NSCLC): 1630 nM
TGI (A549 NSCLC): 3130 nM
GI50 (CCRF-CEM leukemia): 1890 nM
TGI (CCRF-CEM leukemia): 5640 nM
GI50 (SK-OV-3 ovarian): 2220 nM
TGI (SK-OV-3 ovarian): 6920 nM
GI50 (HS 578T breast): 1550 nM
TGI (HS 578T breast): 3530 nM
GI50 (SW-620 colon): 1600 nM
TGI (SW-620 colon): 3030 nM
GI50 (OVCAR-8 ovarian): 1600 nM
TGI (OVCAR-8 ovarian): 3100 nM
GI50 (MDA-MB-231 breast): 1770 nM
TGI (MDA-MB-231 breast): 3380 nM
GI50 (HT29 colon): 1710 nM
TGI (HT29 colon): 3370 nM
GI50 (LOX IMVI melanoma): 1630 nM
TGI (LOX IMVI melanoma): 2990 nM
GI50 (KM12 colon): 1870 nM
TGI (KM12 colon): 3610 nM
GI50 (COLO 205 colon): 1680 nM
TGI (COLO 205 colon): 3100 nM
GI50 (NCI-H460 lung): 1700 nM
TGI (NCI-H460 lung): 3120 nM
GI50 (MALME-3M melanoma): 1720 nM
TGI (MALME-3M melanoma): 3260 nM
GI50 (NCI-H522 lung): 1780 nM
TGI (NCI-H522 lung): 3420 nM
GI50 (CAKI-1 renal): 1330 nM
TGI (CAKI-1 renal): 2650 nM
GI50 (SK-MEL-5 melanoma): 1770 nM
TGI (SK-MEL-5 melanoma): 3250 nM
GI50 (TK-10 renal): 1840 nM
TGI (TK-10 renal): 4080 nM
GI50 (NCI-H226 lung): 4260 nM
TGI (NCI-H226 lung): 18100 nM
GI50 (U251 CNS): 1590 nM
TGI (U251 CNS): 3040 nM
GI50 (UO-31 renal): 1310 nM
TGI (UO-31 renal): 2770 nM
GI50 (HCC-2998 colon): 2060 nM
TGI (HCC-2998 colon): 4290 nM
GI50 (MCF7 breast): 216 nM
TGI (MCF7 breast): 2190 nM
GI50 (OVCAR-5 ovarian): 4260 nM
TGI (OVCAR-5 ovarian): 17100 nM
GI50 (UACC-62 melanoma): 1720 nM
TGI (UACC-62 melanoma): 3320 nM
GI50 (A498 renal): 2690 nM
TGI (A498 renal): 12100 nM
GI50 (786-0 renal): 1740 nM
TGI (786-0 renal): 3270 nM
GI50 (SNB-19 CNS): 3310 nM
TGI (SNB-19 CNS): 12400 nM
GI50 (RXF 393 renal): 1330 nM
TGI (RXF 393 renal): 2720 nM
GI50 (SF-539 CNS): 1740 nM
TGI (SF-539 CNS): 3120 nM
GI50 (OVCAR-4 ovarian): 1940 nM
TGI (OVCAR-4 ovarian): 4650 nM
GI50 (HCT-116 colon): 1530 nM
TGI (HCT-116 colon): 3000 nM
GI50 (NCI/ADR-RES ovarian): 3120 nM
TGI (NCI/ADR-RES ovarian): 11800 nM
GI50 (T-47D breast): 1450 nM
TGI (T-47D breast): 4120 nM
GI50 (M14 melanoma): 1690 nM
TGI (M14 melanoma): 3190 nM
GI50 (UACC-257 melanoma): 1760 nM
TGI (UACC-257 melanoma): 3280 nM
GI50 (HOP-62 NSCLC): 1630 nM
TGI (HOP-62 NSCLC): 3180 nM
GI50 (SK-MEL-28 melanoma): 1780 nM
TGI (SK-MEL-28 melanoma): 3260 nM
GI50 (SN12C renal): 1680 nM
TGI (SN12C renal): 3220 nM
GI50 (IGROV1 ovarian): 1810 nM
TGI (IGROV1 ovarian): 3570 nM
GI50 (HCT-15 colon): 1720 nM
TGI (HCT-15 colon): 3300 nM
GI50 (SK-MEL-2 melanoma): 1870 nM
TGI (SK-MEL-2 melanoma): 3800 nM
GI50 (ACHN renal): 1880 nM
TGI (ACHN renal): 3770 nM
GI50 (RPMI-8226 leukemia): 1900 nM
TGI (RPMI-8226 leukemia): 4300 nM
GI50 (MOLT-4 leukemia): 1930 nM
TGI (MOLT-4 leukemia): 5270 nM
GI50 (MDA-MB-435): 1720 nM
TGI (MDA-MB-435): 3240 nM
GI50 (EKVX NSCLC): 3830 nM
TGI (EKVX NSCLC): 16500 nM
GI50 (BT-549 breast): 2880 nM
TGI (BT-549 breast): 9200 nM
GI50 (HL-60(TB) leukemia): 1620 nM
TGI (HL-60(TB) leukemia): 4300 nM
GI50 (SF-295 CNS): 1750 nM
TGI (SF-295 CNS): 3200 nM
